Measurements as given in patent US9408853B2, “Iridium/rhodium anti-cancer compounds” (University of Warwick, priority 2010, dated 2016).

Assays:
[1] = Kinetics of hydrolysis followed by 1H NMR; assay type: physicochemical; conditions: for rate of hydrolysis (in words): 1H NMR, even at 278K; for k (hydrolysis): 0.2 mM, 5% MeOD-d4/95% D2O, pH* 3; for Ea (Arrhenius activation energy of hydrolysis): from Arrhenius plot; for ΔH^‡ (activation enthalpy of hydrolysis) / ΔS^‡ (activation entropy of hydrolysis): from Eyring plot
Method: Kinetics for Hydrolysis. Although complexes ZL01-ZL04, ZL07, ZL38 and ZL43 hydrolyzed too rapidly to monitor by ^1H NMR, The kinetics of hydrolysis for complexes ZL25, ZL33, ZL37 and ZL54 were followed by ^1H NMR at different temperatures. For this, solutions of the complexes with a final concentration of 0.2 mM in 5% MeOD-d4/95% D2O (v/v) were prepared by dissolution of the complexes in MeOD-d4 followed by rapid dilution using D2O with a pH* of about 3 (acidified with HClO4), so that the aqua ligand was not deprotonated. ^1H NMR spectra were taken after various time intervals. The rates of hydrolysis were determined by fitting plots of concentrations (determined from ^1H NMR peak integrals) versus time to a pseudo first-order equation using ORIGIN version 7.0. The Arrhenius activation energy (Ea), activation enthalpies (ΔH^¢), and activation entropy (ΔS^‡) for compounds ZL25, ZL33, ZL37 and ZL54 were determined from the slopes of the Arrhenius and intercepts of Eyring plots.
The rates of hydrolysis of compounds ZL01-ZL04, ZL07, ZL25, ZL33, ZL37, ZL38, ZL43 and ZL54 in a 5% MeOD-d4/95% D2O were monitored by ^1H NMR at different temperature from 278 to 298 K by the observation of new peaks over time due to aqua adduct formation. Five percent MeOD was used to improve solubility, and acidic conditions (D2O, pH* 3) were used to prevent the deprotonation of the aqua complex as a secondary reaction. […] The percentage of aqua peak formation for ZL25, ZL33, ZL37 and ZL54 was plotted against time and was fitted to pseudofirst order kinetics (FIG. 3), and their halflife times were calculated (Table 1). The Arrhenius activation energy (Ea), activation enthalpy (ΔH^¢), and activation entropy (ΔS^‡) of compound ZL25, ZL33, ZL37 and ZL54 are listed in Table 4. The large negative ΔS^‡value for compound ZL54 is notable. The extent of hydrolysis at equilibrium is medium for all compounds, ranged from 30% to 60%.

9-ethylguanine (9-EtG) = experiment: Interactions with nucleobases: 9-EtG adduct formation (1H NMR); assay type: binding; conditions: 1 mM, 1 mol equiv 9-EtG (ZL33A: 2 mol equiv), D2O, 310 K
Method: (§1) Interactions with Nucleobases. The reaction of ZL01, ZL03, ZL04, ZL07, ZL25, ZL33, ZL37, ZL38, ZL43 and ZL54 and ZL33A with nucleobases typically involved addition of a solution containing 1-2 mol equiv of nucleobase in D2O, to an equilibrium solution of ZL01, ZL03, ZL04, ZL07, ZL25, ZL33, ZL37, ZL38, ZL43, ZL54 and ZL33A in a solution of 5% MeOD-d4/95% D2O (v/v). ^1H NMR spectra of these solutions were recorded at 310 K after various time intervals.
(§2) Since DNA is a potential target site for transition metal anticancer complexes,^18 nucleobase binding reactions of compounds ZL01, ZL03, ZL04, ZL07, ZL25, ZL33, ZL33A, ZL37, ZL38, ZL43 and ZL54 with nucleobase models 9-ethylguanine (9-EtG) and 9-ethyladenine (9-EtA), were investigated. Solutions of ZL01, ZL03, ZL04, ZL07, ZL25, ZL33, ZL37, ZL38, ZL43 and ZL54 (1 mM) (containing an equilibrium mixture of these complexes and their respective aqua adducts) with 1 mol equivalent of 9-EtG or 9-EtA in D2O were prepared, and ^1H NMR spectra were recorded at different time intervals.
Interactions with Nucleobases. Since DNA is a potential target site for transition metal anticancer complexes,^23 the binding of 9-ethylguanine (9-EtG) to complexes ZL47, ZL49, ZL69, ZL74 and ZL107 was studied.

9-ethyladenine (9-EtA) = experiment: Interactions with nucleobases: 9-EtA adduct formation (1H NMR); assay type: binding; conditions: 1 mM, 1 mol equiv 9-EtA, D2O, 310 K
Method: as §1, §2

[2] = test system: human ovarian A2780 cancer cells; experiment: Cancer cell cytotoxicity, SRB assay; assay type: cell-based; conditions: 24 h exposure, 72 h recovery, SRB; read-out: A2780 IC50
Method: Cancer Cell Cytotoxicity. After plating, human ovarian A2780 cancer cells were treated with Ir^III complexes on day 3 at concentrations ranging from 0.5 μM to 100 μM. Solutions of the Ir^III complexes were made up in 0.125% DMSO to assist dissolution. Stock solutions of the IrIII complexes were firstly prepared in DMSO to assist dissolution, and then diluted into 0.9% saline and medium. After plating 5000 A2780 cells per well on day 1, IrIII complexes were added to the cancer cells on day 3 at concentrations ranging from 0.05 μM to 100 μM. Cells were exposed to the complexes for 24 h, washed, supplied with fresh medium, allowed to grow for three doubling times (72 h), and then the protein content measured (proportional to cell survival) using the sulforhodamine B (SRB) assay.^15 […]. The standard errors are based on two independent experiments of three replicates each.

A549 cancer cell line = experiment: Cytotoxicity, MTT assay (Brabec group); assay type: cell-based; conditions: for IC50: 72 h incubation, MTT
Method: (§3) The cytotoxicity test of ZL07, ZL33, ZL38 and ZL54 against A2780, SW480, A549 and CH1 cell lines was performed by Viktor Brabec group (Institute of Biophysics, Academy of Sciences of the Czech Republic). After plating, the cells were treated with ZL07, ZL33, ZL38 and ZL54. After 72h of incubation 10 μl of MTT (2.5 mg/ml; CALBIOCHEM) was added to each well and incubated for 4 h in culture conditions. At the end of the incubation period the medium was removed and the formazan product was dissolved in 100 μl DMSO. The cell viability was evaluated by measurement of the absorbance at 570 nm, using an Absorbance Reader SUNRICE TECAN SCHOELLER. […] All experiments were made in quadruplicate.

CH1 cancer cell line = experiment: Cytotoxicity, MTT assay (Brabec group); assay type: cell-based; conditions: for IC50: 72 h incubation, MTT; for cytotoxicity towards CH1 (in words): highest test concentration 130 μM
Method: as §3

SW480 cancer cell line = experiment: Cytotoxicity, MTT assay (Brabec group); assay type: cell-based; conditions: for IC50: 72 h incubation, MTT; for cytotoxicity towards SW480 (in words): highest test concentration 130 μM
Method: as §3

[3] = test system: ca. 60 cell lines within nine tumour type subpanels; assay type: cell-based
Description: Six complexes, [(η^5-C5Me4C6H4C6H5)Ir(bpy)Cl]PF6 (ZL25, bpy=2,2′-bipyridine), [(η^5-C5Me4C6H5)Ir(phen)Cl]PF6 (ZL33, phen=1,10-phenanthroline), [(η^5-C5Me4C6H4C6H5) Ir(pico)Cl] (ZL43, pico=picolinate), [(η^5-C5Me5)Ir(2-phpy)Cl] (ZL47), [(η^5-C5Me4C6H4C6H5)Ir(2-phPY)(D2O)Cl] (ZL49) and [(η^5-C5Me4C6H4C6H5) Ir(phen)Cl]PF6 (ZL54), were selected by Developmental Therapeutics Program of National Cancer Institute (NCI, U.S.A.) for in vitro screening test, in which 5 complexes except ZL43 are selected for further testing. The five complexes were tested on ca. 60 cell lines within nine tumour type subpanels at five concentrations ranging from 0.01 to 100 μM.

Compound | rate of hydrolysis (in words) [1] | Reaction with 9-EtG, extent of adduct formation (9-ethylguanine (9-EtG); 10 min) [%] | Reaction with 9-EtA, extent of adduct formation (9-ethyladenine (9-EtA); 10 min) [%] | Reaction with 9-EtA, extent of adduct formation (9-ethyladenine (9-EtA); 24 h) [%] | IC50 [2] [µM] | IC50 (A549 cancer cell line) [µM] | IC50 (CH1 cancer cell line) [µM] | IC50 (SW480 cancer cell line) [µM] | k (hydrolysis) ([1]; 278 K) [min⁻¹] | Ea (Arrhenius activation energy of hydrolysis) [1] [kJ/mol] | ΔH^‡ (activation enthalpy of hydrolysis) [1] [kJ/mol] | ΔS^‡ (activation entropy of hydrolysis) [1] [J K^−1mol^−1] | further results
Cc1c(C)c(-c2ccccc2)[c-](C)c1C.O=C([O-])c1ccccn1.[Cl-].[Ir+3] (stereo not drawn) [ZL38, [(η^5-C5Me4C6H5)Ir(η^2-C5H4N-2-CO2)Cl]] | too rapid to be observed | 100 | 76.0 | 76.0 | > 100 | > 130 | > 130 | > 130 | – | – | – | – | Reaction with 9-EtG, extent of adduct formation (9-ethylguanine (9-EtG); 24 h): 100%; cytotoxicity towards A549 (in words) (A549 cancer cell line; highest test concentration 130 μM): nontoxic; cytotoxicity towards CH1 (in words) (CH1 cancer cell line): nontoxic; cytotoxicity towards SW480 (in words) (SW480 cancer cell line): nontoxic
Cc1c(C)c(-c2ccccc2)[c-](C)c1C.F[P-](F)(F)(F)(F)F.[Cl-].[Ir+3].c1ccc(-c2ccccn2)nc1 (stereo not drawn) [ZL37, [(η^5-C5Me4C6H5)Ir(bipy)Cl]PF6] | – | 18.6 | 0 | 0 | 15.9 | – | – | – | 0.0341 | 82.4 | 79.8 | 14.7 | k (hydrolysis) ([1]; 283 K): 0.0652 min⁻¹; k (hydrolysis) ([1]; 288 K): 0.1229 min⁻¹
Cc1c(C)c(C)[c-](C)c1C.[Cl-].[Cl-].[Ir+3].c1cnc2c(c1)ccc1cccnc12 [ZL07, [(η^5-C5Me5)Ir(phen)Cl]Cl] | too rapid to be observed | 73.1 | 0 | 0 | > 100 | > 130 | 50.7 ± 2.8 | 80.1 ± 1.5 | – | – | – | – | cytotoxicity towards CH1 (in words) (CH1 cancer cell line): moderate activity; cytotoxicity towards SW480 (in words) (SW480 cancer cell line): moderate activity
Cc1c(C)c(-c2ccc(-c3ccccc3)cc2)[c-](C)c1C.O=C([O-])c1ccccn1.[Cl-].[Ir+3] (stereo not drawn) [ZL43, [(η^5-C5Me4C6H4C6H5)Ir(η^2—C5H4N-2-CO2)Cl]] | too rapid to be observed | 100 | 71 | 71 | 16.3 | – | – | – | – | – | – | – | Reaction with 9-EtG, extent of adduct formation (9-ethylguanine (9-EtG); 24 h): 100%
Cc1c(C)c(-c2ccc(-c3ccccc3)cc2)[c-](C)c1C.F[P-](F)(F)(F)(F)F.[Cl-].[Ir+3].c1ccc(-c2ccccn2)nc1 (stereo not drawn) [ZL25, [(η^5-C5Me4C6H4C6H5)Ir(bipy)Cl]PF6] | – | 24.2 | 0 | 0 | 0.57 | – | – | – | 0.0249 | 60.4 | 58.1 | −66.02 | k (hydrolysis) ([1]; 283 K): 0.0405 min⁻¹; k (hydrolysis) ([1]; 293 K): 0.0986 min⁻¹; CC50 [3]: 67.6 µM; Mean graph midpoint (MID) TGI ([3]; ca. 60 cell lines, 0.01 to 100 μM): 19.1 µM; GI50 ([3]; ca. 60 cell lines, 0.01 to 100 μM, read-out: Mean graph midpoint (MID) GI50): 4.1 µM; selectivity among tumour type subpanels (in words) ([3]; mean graphs): selectivity with higher activity not only towards leukemia, CNS cancer, melanoma, and prostate cancer, but also against colon cancer and breast cancer
Cc1c(C)c(C)[c-](C)c1C.[Cl-].[Cl][Ir]1[n+]2ccccc2-c2cccc[n+]21 [ZL04, [(η^5-C5Me5)Ir(bipy)Cl]Cl] | – | 28.2 | 0 | 0 | > 100 | – | – | – | – | – | – | – | –
N.N.[Cl][Pt][Cl] [Cisplatin, reference compound] | – | – | – | – | 1.2 | 5.9 ± 1.9 | 0.59 ± 0.1 | 9.24 ± 1.1 | – | – | – | – | –
Cc1c(C)c(-c2ccc(-c3ccccc3)cc2)[c-](C)c1C.F[P-](F)(F)(F)(F)F.[Cl-].[Ir+3].c1cnc2c(c1)ccc1cccnc12 (stereo not drawn) [ZL54, [(η^5-C5Me4C6H4C6H5)Ir(phen)Cl]PF6] | – | 62.2 | 0 | 0 | 0.72 | 1.58 ± 0.4 | 0.69 ± 0.04 | 1.38 ± 0.2 | 0.0179 | 45.6 | 43.4 | −121.2 | k (hydrolysis) ([1]; 288 K): 0.0352 min⁻¹; k (hydrolysis) ([1]; 293 K): 0.0516 min⁻¹; times more active than cisplatin (A549 cancer cell line; A549): ~3.7 times; times more active than cisplatin (SW480 cancer cell line; SW480): about 6.7 times
